From US20230002736A1, “ENDODERM DIFFERENTIATION FROM PLURIPOTENT STEM CELL LINES” (priority 2019, published 2023)

Columns and labels:
iPSC lines = format: cell-based
Protocol: Induction of Definitive Endoderm (days 1-7). iPSCs were plated on 6-, 12-, or 96-well Matrigel-coated plates at different densities for differentiation in iPSC media containing 10 μM Y-27632 and 2 μM doxycycline. For example, typical plating density in a single well of a 6-well plate was 500,000 cells or 20,000 cells per well for 96-well plates. The differentiation process consisted of one week of RPMI media supplemented with Gem21 NeuroPlex without insulin at 1× (supplied at 50×, Gemini Bio-Products West Sacramento, Calif., catalog #400-962, or supplemented with Gibco B27 without insulin at 1×), Glutagro at 1× (Corning, Manassas, Va., catalog #25-015-CI, non-essential amino acids at 1× (Gibco, catalog #11-140-050), sodium butyrate (0.5 mM, Sigma Aldrich, catalog #B5887) and recombinant human Activin A (100 ng/mL, Peprotech, Rocky Hill, N.J., catalog #120-14E) for 7 days. On day 1, 2% KnockOut Serum Replacement (KSR; Gibco Catalog #10828028), CHIR-99021 (10 ng/mL, Selleckchem catalog #S2924), PI-103 (10 ng/mL,Selleckchem catalog #S1038), recombinant human BMP4 (10 ng/mL, Peprotech catalog #120-05ET) and FGF2 (20 ng/mL, Peprotech catalog #100-18B) were added to the media. On day 2, 1% KSR, PI-103 (10 ng/mL) and BMP4 (10 ng/mL) and FGF2 (20 ng/mL) and on day 3, 0.2% KSR and PI-103 (10 ng/mL) were added to the media. Doxycycline hyclate (Acros Organics catalog #446061000) was added throughout definitive endoderm induction starting on day 0 (passage day) at various concentrations, as described herein, with a standard concentration being 2 μM. These steps can be performed at normal room oxygen at about 20% or at low oxygen between 4 and 6%.

iPS cells = assay: Growth of iPS cells in the presence of doxycycline (dose response); format: cell-based, human; settings: FIG. 7B
Protocol: The media conditions to maintain human iPSCs have all been previously described (40). For passaging the cells Accutase (StemCell Technologies, Vancouver, BC) was used for 5 minutes at 37° C. and then stopped with iPSC media containing 10 μM Y-27632 (Selleckchem, Houston, Tex.) (41). The dissociated IPSCs were seeded on new plates with media containing Y-27632, and after 24 hours replaced with media alone. iPSC media was changed daily.
We also did a complete dose-response curve on the growth of iPS cells in the presence of doxycycline up to 30 μg/mL, with toxicity observed beginning at the 10 μg/mL level (FIG. 7B). Beyond effects on iPS cells, we further confirmed the ability of doxycycline to support the induction of iPSCs to endoderm. For this we performed immunohistochemical staining for markers of endoderm, including CXCR4, SOX17, FOXA2, and HNF16 (FIG. 2A and 2B). […] More importantly, the ML1 protocol allowed induction of complete monolayers of endoderm from virtually any iPSC. Compared to many of the other protocols that we tested for poorly differentiating iPS cell lines(6, 8), we could actually differentiate most lines using the ML1 protocol, but only a fraction of them using the other protocols. […]

Structure (SMILES): C[C@H]1c2cccc(O)c2C(=O)C2=C(O)[C@]3(O)C(=O)C(C(N)=O)=C(O)[C@@H](N(C)C)[C@@H]3[C@@H](O)[C@@H]21 [doxycycline]
- concentration giving total cell death (iPSC lines; by the third day of induction): > 10 µg/mL
- concentration tolerated by the cells (iPSC lines; endoderm induction): up to 10 μg/mL
- titration of doxycycline, outcome in words (iPS cells): an optimal level of doxycycline and a toxic level
- concentration at which toxicity begins (iPS cells; dose-response up to 30 μg/mL): 10 µg/mL
